From patent publication US20070197577A1 (priority 2003, published 2007)

How the values were obtained:
[1] = tested on: anthrax; settings: monkey, in vivo; cited from earlier work

Molecule	monkeys that survived a lethal aerosol challenge [1]	melting point [°C]
O=C(O)c1cn(C2CC2)c2cc(N3CCNCC3)c(F)cc2c1=O [ciprofloxacin]	8 of 9	
penicillin	7 of 10	
CC(C)CC(NCC(=O)NO)C(=O)NC(Cc1ccc2ccccc2c1)C(=O)NC(C)C(N)=O (stereo not shown)		205 to 212
O=C(O)c1cccc(N(CCc2ccccc2)c2nnc(-c3cccc(Oc4cccc(C(F)(F)F)c4)c3)s2)c1		92 to 93
